# Article doi:10.1101/2022.11.24.517821v4 (biorxiv, 2022)
# Like-named read-outs stand apart in the source and are kept apart here.
# Legend:
# [1] = molecular target: T1, TAS2R14 (Homo sapiens, UniProt Q9NYV8); assay: cell-based; parameters: species or system HEK293T; settings: HEK-293T, read-out: Emax[%flu acid]
# T1 sequence (Q9NYV8 1-317): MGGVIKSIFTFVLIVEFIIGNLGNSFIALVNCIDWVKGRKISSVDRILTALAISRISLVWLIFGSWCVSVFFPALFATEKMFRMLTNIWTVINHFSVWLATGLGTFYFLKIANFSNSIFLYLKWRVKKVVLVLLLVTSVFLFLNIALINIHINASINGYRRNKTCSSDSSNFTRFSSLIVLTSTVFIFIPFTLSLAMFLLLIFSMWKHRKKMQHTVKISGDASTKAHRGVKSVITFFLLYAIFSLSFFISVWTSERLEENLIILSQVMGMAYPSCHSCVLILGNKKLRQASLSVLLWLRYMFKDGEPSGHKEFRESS
# [2] = molecular target: T1, TAS2R14; assay: cell-based; parameters: species or system HEK293T
# [3] = molecular target: T1, TAS2R14; assay: IP-One HTRF IP1 accumulation, HEK293T with Galpha-qi5; type: cell-based
# [4] = molecular target: T1, TAS2R14; assay: as above; type: cell-based; settings: antagonist mode, […] min pre-incubation, against […] flufenamic acid, […] °C
SMILES,Emax [1] [%],EC50 [2] [µM],IC50 [3] [µM],IC50 [4]
FC(F)(F)c1cc(Nc2ccccc2-c2nnn[nH]2)cc(OC2CC2)c1 [lw190],68 ± 4,0.43 ± 0.075,,
O=C(O)c1ccccc1Nc1cc(N2CCOCC2)cc(C(F)(F)F)c1 [lw167],41 ± 18,0.7 ± 0.4,,
NC(=O)c1cc(Nc2ccccc2C(=O)O)cc(C(F)(F)F)c1 [lw154],127 ± 13,7.2 ± 1,,
O=C1COc2c(cc(C(F)(F)F)cc2Nc2ccccc2C(=O)O)N1 [lw104],74 ± 8,1.8 ± 0.18,,
COC(=O)c1ccccc1Nc1cccc(C(F)(F)F)c1 [lw50],47 ± 23,5.3 ± 3.2,,
Cc1cc(Nc2ccccc2-c2nnn[nH]2)cc(C(F)(F)F)c1 [lw201],81 ± 7,0.59 ± 0.25,,
O=C(O)c1ccccc1Nc1ccc(Cl)c(C(F)(F)F)c1 [lw076],67 ± 9,0.2 ± 0.05,,
COc1cc(Nc2ccccc2-c2nnn[nH]2)cc(C(F)(F)F)c1 [lw085],98 ± 3,0.08 ± 0.02,,
O=C(O)c1ccccc1Nc1cc([N+](=O)O)cc(C(F)(F)F)c1 [lw119],67 ± 8,0.19 ± 0.05,,
O=C(O)c1ccccc1Nc1cc(C#CC2CC2)cc(C(F)(F)F)c1 [lw271],57 ± 7,0.46 ± 0.079,,
CC#Cc1ccc(Nc2ccccc2C(=O)O)cc1C(F)(F)F [lw310],89 ± 3,0.38 ± 0.052,,
COc1ccc(Nc2ccccc2C(=O)O)cc1OCc1ccc(Cl)cc1 [lwbk19],70 ± 11,1.2 ± 0.3,,
Cc1cn(-c2cc(Nc3ccccc3C(=O)O)cc(C(F)(F)F)c2)cn1 [lw122],51 ± 11,3.7 ± 1.2,,
NC(=O)c1cc(Nc2ccccc2-c2nnn[nH]2)cc(C(F)(F)F)c1 [lw183],86 ± 8,6 ± 1.3,,
COC(=O)c1cc(Nc2ccccc2C(=O)O)cc(C(F)(F)F)c1 [lw153],73 ± 5,0.78 ± 0.25,,
CCCCCNC(=O)c1ccc(Nc2ccccc2C(=O)O)cc1C(F)(F)F [lw317],66 ± 17,30 ± 19,,
CCCCC#Cc1ccc(Nc2ccccc2C(=O)O)cc1C(F)(F)F [lw308],87 ± 7,4.4 ± 1.6,,
FC(F)(F)c1cccc(Nc2ccccc2-c2cnn[nH]2)c1 [lwtp009],48 ± 1,12 ± 1.4,,
FC(F)(F)c1cc(-c2ccccc2)nc(Nc2ccccc2-c2nnn[nH]2)n1 [lw341],118 ± 16,1.1 ± 0.32,,

SMILES,Emax [1] [%],EC50 [2] [µM],IC50 [3] [µM],IC50 [4]
FC(F)(F)c1cccc(Nc2ccccc2-c2cnoc2)c1 [lwph005],50 ± 1,12 ± 8.9,,
CCCCc1cc2cccc(C(=O)O)c2n1-c1cccc(C(F)(F)F)c1 [lw273],62 ± 6,8.3 ± 2.4,,
Cc1[nH]nc(C(=O)Nc2ccc(C3CCC(F)(F)CC3)cc2)c1C(=O)O [LF14],,,22 ± 16,
Oc1cc(-c2ccccc2Nc2cccc(C(F)(F)F)c2)on1 [lw306],38 ± 4,3.1 ± 1.8,,
O=C(O)c1ccccc1Nc1ccc(N2CCOCC2)c(C(F)(F)F)c1 [lw101],44 ± 5,2 ± 0.49,,
O=C(O)c1ccccc1Nc1cccc(OCc2cccc(F)c2)c1 [lwmr06],71 ± 4,0.42 ± 0.05,,
O=C(O)c1ccccc1Nc1cc(OCc2ccccc2)cc(C(F)(F)F)c1 [lw105],66 ± 14,1.7 ± 0.35,,
FC(F)Oc1cccc(Nc2ccccc2-c2nnn[nH]2)c1 [lw083],77 ± 5,0.2 ± 0.02,,
NS(=O)(=O)c1ccccc1Nc1cccc(OCc2ccccc2)c1 [lw19a],100,65 ± 25,,
FS(F)(F)(F)(F)c1cccc(Nc2ccccc2-c2nnn[nH]2)c1 [lw071],48 ± 3,0.23 ± 0.09,,
O=C(O)c1cc(I)ccc1Nc1cccc(C(F)(F)F)c1 [LW118],,,,A derivative of flufenamic acid (LW118)
FC(F)(F)c1cc(Nc2ccccc2-c2nnn[nH]2)ccc1N1CCOCC1 [lw114],50 ± 7,0.19 ± 0.02,,
COc1cccc(COc2cccc(Nc3ccccc3C(=O)O)c2)c1 [lwmr05],70 ± 6,0.74 ± 0.12,,
FC(F)(F)c1cc(Nc2ccccc2-c2nnn[nH]2)ccc1Cl [lw084],59 ± 1,0.19 ± 0.02,,
FC(F)(F)c1cc(Nc2ccccc2-c2nnn[nH]2)c(Cl)c(C(F)(F)F)c1 [lwjk06],97 ± 8,0.17 ± 0.02,,
COc1cccc(COc2cc(Nc3ccccc3C(=O)O)ccc2C)c1 [lwlb18],54 ± 14,1.5 ± 0.5,,
O=C(O)c1ccccc1Nc1cc(C(F)(F)F)cc(C(F)(F)F)c1Cl [lwjk05],84 ± 1,0.15 ± 0.02,,
O=C(O)c1cc([N+](=O)[O-])ccc1Nc1cccc(C(F)(F)F)c1 [lw205],82 ± 4,0.27 ± 0.075,,
COc1cc(Nc2ccc(Cl)cc2-c2nnn[nH]2)cc(C(F)(F)F)c1 [lw128],26 ± 4,0.58 ± 0.18,,

SMILES,Emax [1] [%],EC50 [2] [µM],IC50 [3] [µM],IC50 [4]
COc1cccc(COc2cc(Nc3ccccc3C(=O)O)ccc2OC)c1 [lwbk21],88 ± 10,2.1 ± 1.1,,
Cc1ccc(C(F)(F)F)cc1Nc1ccccc1-c1nnn[nH]1 [lw113],90 ± 5,0.31 ± 0.092,,
NC(=O)c1ccccc1Nc1cccc(C(F)(F)F)c1 [lw208],34 ± 4,11 ± 0.75,,
COC(=O)c1cc(Nc2ccccc2-c2nnn[nH]2)cc(C(F)(F)F)c1 [lw169],97 ± 4,0.64 ± 0.14,,
FC(F)(F)Oc1cccc(Nc2ccccc2-c2nnn[nH]2)c1 [lw070],72 ± 13,0.19 ± 0.07,,
COc1ccc(Nc2ccccc2C(=O)O)cc1OCc1cccc(F)c1 [lwbk20],89 ± 4,1.4 ± 0.5,,
O=C(O)c1ccccc1Nc1cccc(OCc2ccc(Cl)cc2)c1 [lwmr04],64 ± 2,1.1 ± 0.18,,
Cc1ccc(Nc2ccccc2C(=O)O)cc1OCc1ccc(Cl)cc1 [lwlb17],70 ± 10,1.3 ± 0.18,,
O=C(O)c1ccccc1Nc1cc(OC2CC2)cc(C(F)(F)F)c1 [lw103],64 ± 3,0.31 ± 0.05,,
COC(=O)c1cccc(C(=O)O)c1Nc1cccc(C(F)(F)F)c1 [lw253],42 ± 4,0.48 ± 0.11,,
Cc1c(Nc2ccccc2-c2nnn[nH]2)cccc1C(F)(F)F [lw086],70 ± 4,0.29 ± 0.05,,
O=C(c1cc(O)cc(C(F)(F)F)c1)N1CC(c2ccccc2)C1CO (centres unmarked) [LF22],,,7.2 ± 3,
COc1cc(Nc2ccccc2C(=O)O)cc(C(F)(F)F)c1 [lw077],87 ± 5,0.2 ± 0.06,,
Cc1ccc(Nc2ccccc2C(=O)O)cc1OCc1cccc(F)c1 [lwlb19],70 ± 6,1.9 ± 0.94,,
O=[N+](O)c1cc(Nc2ccccc2-c2nnn[nH]2)cc(C(F)(F)F)c1 [lw130],80 ± 8,0.73 ± 0.15,,
Clc1cccc(Nc2ccccc2-c2nnn[nH]2)c1 [lw072],67 ± 6,0.17 ± 0.07,,
O=Cc1ccc(Cl)cc1Nc1ccccc1C(=O)O [lw231],97 ± 7,3.3 ± 0.46,,
O=C(O)c1ccccc1Nc1cccc(OC(F)(F)F)c1 [lw057],101 ± 5,0.25 ± 0.06,,
O=C(Nc1ccccc1C(=O)O)c1ccc(OC(F)(F)F)cc1 [LF1],,,6.8 ± 3.2,
